Measured values taken from patent US20250263395A1, “COMPOUNDS THAT MEDIATE PROTEIN DEGRADATION AND METHODS OF USE THEREOF” (Monte Rosa Therapeutics AG, priority 2022, published 2025).

Key:
CDK2 = CDK2 (Homo sapiens (Human), UniProt P24941); assay: CDK2 NanoBiT assay (HiBiT-tagged CDK2 degradation); assay type: cell-based; details: HEK293, HEK293 clonal line, C-terminal HiBiT tag on CDK2, LgBiT; 24 hours
How it was run: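 HEK293 line with CRISPR knock-in C-terminal HiBiT-tagged CDK2 and stable LgBiT, preincubated 16 h with live-cell substrate, then compound-treated 24 h at 37° C, 5% CO2 (30 μM stock). Luminescence normalized to plate negative and positive controls; EC50 from 3-parameter logistic fit, Hill slope 1.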

CRBN-DDB1 = CRBN-DDB1 (Homo sapiens (Human), UniProt Q96SW2); assay: CRBN HTRF assay (Cy5-Thalidomide probe displacement); assay type: binding; details: CRBN-DDB1 2.5 nM, Cy5-Thalidomide 100 nM, 30 min; Ki from geometric mean IC50 by Cheng-Prusoff
CRBN-DDB1, sequence (Q96SW2 whole entry): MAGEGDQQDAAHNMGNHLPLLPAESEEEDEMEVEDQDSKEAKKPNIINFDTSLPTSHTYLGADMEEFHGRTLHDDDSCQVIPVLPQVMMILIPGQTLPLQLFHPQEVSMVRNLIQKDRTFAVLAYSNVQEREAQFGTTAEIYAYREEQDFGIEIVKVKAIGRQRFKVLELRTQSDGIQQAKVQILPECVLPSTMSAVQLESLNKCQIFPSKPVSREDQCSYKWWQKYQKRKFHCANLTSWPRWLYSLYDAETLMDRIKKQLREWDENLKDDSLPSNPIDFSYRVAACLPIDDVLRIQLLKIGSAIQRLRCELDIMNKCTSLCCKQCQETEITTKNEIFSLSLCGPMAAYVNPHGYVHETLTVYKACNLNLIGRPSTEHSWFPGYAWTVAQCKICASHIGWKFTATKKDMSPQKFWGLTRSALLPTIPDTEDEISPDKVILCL
CRBN-DDB1, sequence (Q16531 whole entry partner): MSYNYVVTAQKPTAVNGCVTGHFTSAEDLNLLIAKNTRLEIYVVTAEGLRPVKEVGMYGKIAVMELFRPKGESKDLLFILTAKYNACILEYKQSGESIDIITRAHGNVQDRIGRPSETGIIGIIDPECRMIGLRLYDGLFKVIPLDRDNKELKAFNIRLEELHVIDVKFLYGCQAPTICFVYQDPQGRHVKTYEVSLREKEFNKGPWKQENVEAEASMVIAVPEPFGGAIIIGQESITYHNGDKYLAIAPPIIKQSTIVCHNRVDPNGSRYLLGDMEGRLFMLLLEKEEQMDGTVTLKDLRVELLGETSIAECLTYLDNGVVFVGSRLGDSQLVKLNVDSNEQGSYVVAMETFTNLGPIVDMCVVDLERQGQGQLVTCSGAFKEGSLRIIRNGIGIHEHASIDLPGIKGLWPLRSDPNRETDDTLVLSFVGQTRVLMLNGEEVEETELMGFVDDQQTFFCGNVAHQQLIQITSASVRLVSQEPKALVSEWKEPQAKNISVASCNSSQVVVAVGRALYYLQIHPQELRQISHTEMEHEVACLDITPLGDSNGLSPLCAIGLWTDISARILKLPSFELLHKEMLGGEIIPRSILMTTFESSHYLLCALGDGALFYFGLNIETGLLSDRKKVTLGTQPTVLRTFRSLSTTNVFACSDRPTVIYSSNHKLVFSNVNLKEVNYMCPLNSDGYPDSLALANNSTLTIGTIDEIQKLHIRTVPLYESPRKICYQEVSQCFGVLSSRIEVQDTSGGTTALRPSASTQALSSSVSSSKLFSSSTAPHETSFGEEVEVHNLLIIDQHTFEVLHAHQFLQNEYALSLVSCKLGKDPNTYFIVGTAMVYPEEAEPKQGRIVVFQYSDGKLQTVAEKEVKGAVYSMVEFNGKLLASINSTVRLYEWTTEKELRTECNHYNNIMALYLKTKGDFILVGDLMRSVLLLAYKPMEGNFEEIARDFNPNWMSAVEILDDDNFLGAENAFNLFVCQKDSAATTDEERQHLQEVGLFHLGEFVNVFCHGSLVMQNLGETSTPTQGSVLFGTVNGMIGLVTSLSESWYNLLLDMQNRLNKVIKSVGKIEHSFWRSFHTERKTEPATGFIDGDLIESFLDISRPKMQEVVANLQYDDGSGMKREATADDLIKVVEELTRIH
How it was run: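 HTRF displacement of Cy5-thalidomide probe (100 nM) from His-CRBN-DDB1 (2.5 nM) with anti-His terbium cryptate, in HEPES/NaCl/TCEP/EDTA/Tween20 buffer. 10-point 1:3 compound series, 30 min at ambient temperature; signal normalised to DMSO and lenalidomide controls, IC50 fitted and Ki derived by Cheng-Prusoff.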

SMILES | Dmax (CDK2) [%] | Ki (CRBN-DDB1) [nM]
C[C@@H]1[C@@H](Nc2nnc(C34CC(C(F)(F)F)(C3)C4)o2)CN1c1cc(F)c(C2CCC(=O)NC2=O)c(F)c1 (stereo partly drawn) [Compound 140, 3-(2,6-difluoro-4-((2R,3S)-2-methyl-3-((5-(3-(trifluoromethyl)bicyclo[1.1.1]pentan-1-yl)-1,3,4-oxadiazol-2-yl)amino)azetidin-1-yl)phenyl)piperidine-2,6-dione] | 50 to 80 | 100 to 1000
CC(C)O[C@H]1C[C@@H](OC(=O)NC2CN(c3cc(F)c(C4CCC(=O)NC4=O)c(F)c3)C2)C1 (stereo partly shown) [Compound 39, (1s, 3s)-3-isopropoxycyclobutyl (1-(4-(2,6-dioxopiperidin-3-yl)-3,5-difluorophenyl)azetidin-3-yl)carbamate] | 50 to 80 | ≤ 100
CN(CC1CC1)C(=O)N1CC(OC(=O)NC2CN(c3cc(F)c(C4CCC(=O)NC4=O)c(F)c3)C2)C1 (stereo not shown) [Compound 43, 1-((cyclopropylmethyl)(methyl)carbamoyl)azetidin-3-yl (1-(4-(2,6-dioxopiperidin-3-yl)-3,5-difluorophenyl)azetidin-3-yl)carbamate] | 50 to 80 | ≤ 100
N#Cc1cc(C2CCC(=O)NC2=O)ccc1N1CC(Nc2nnc(C3CC4(CCC4)C3)o2)C1 (stereo not shown) [Compound 89, 5-(2,6-dioxopiperidin-3-yl)-2-(3-((5-(spiro[3.3]heptan-2-yl)-1,3,4-oxadiazol-2-yl)amino)azetidin-1-yl)benzonitrile] | 50 to 80 | > 1000
Cn1ccnc1N1CC(OC(=O)NC2CN(c3cc(F)c(C4CCC(=O)NC4=O)c(F)c3)C2)C1 (stereo not shown) [Compound 77, 1-(1-methyl-1H-imidazol-2-yl)azetidin-3-yl (1-(4-(2,6-dioxopiperidin-3-yl)-3,5-difluorophenyl)azetidin-3-yl)carbamate] | 10 to 50 | ≤ 100
Cc1ccc(N(C)C(=O)N2CC(OC(=O)NC3CN(c4cc(F)c(C5CCC(=O)NC5=O)c(F)c4)C3)C2)cn1 (stereo not shown) [Compound 109, 1-(methyl (6-methylpyridin-3-yl)carbamoyl) azetidin-3-yl (1-(4-(2,6-dioxopiperidin-3-yl)-3,5-difluorophenyl)azetidin-3-yl) carbamate] | 10 to 50 | ≤ 100
CN(C(=O)C12CC(OC(=O)NC3CN(c4cc(F)c(C5CCC(=O)NC5=O)c(F)c4)C3)(C1)C2)c1ccc(C#N)cc1 (stereo not shown) [Compound 120, 3-((4-cyanophenyl)(methyl)carbamoyl)bicyclo[1.1.1]pentan-1-yl (1-(4-(2,6-dioxopiperidin-3-yl)-3,5-difluorophenyl)azetidin-3-yl)carbamate] | 10 to 50 | ≤ 100
CN(C(=O)N1CC(OC(=O)NC2CN(c3cc(F)c(C4CCC(=O)NC4=O)c(F)c3)C2)C1)C1CC1 (stereo not shown) [Compound 40, 1-(cyclopropyl(methyl)carbamoyl)azetidin-3-yl (1-(4-(2,6-dioxopiperidin-3-yl)-3,5-difluorophenyl)azetidin-3-yl)carbamate] | 50 to 80 | ≤ 100
CN(CC1CC1)C(=O)C12CC(OC(=O)NC3CN(c4cc(F)c(C5CCC(=O)NC5=O)c(F)c4)C3)(C1)C2 (stereo not shown) [Compound 82, 3-((cyclopropylmethyl)(methyl)carbamoyl)bicyclo[1.1.1]pentan-1-yl (1-(4-(2,6-dioxopiperidin-3-yl)-3,5-difluorophenyl)azetidin-3-yl)carbamate] | > 80 | ≤ 100

Results, then the compound that gave them:

Dmax (CDK2) [%] | Ki (CRBN-DDB1) [nM] | SMILES
50 to 80 | ≤ 100 | CN(C(=O)N1CCC(OC(=O)NC2CN(c3cc(F)c(C4CCC(=O)NC4=O)c(F)c3)C2)CC1)C1CC1 (stereo not shown) [Compound 88, 1-(cyclopropyl(methyl)carbamoyl)piperidin-4-yl (1-(4-(2,6-dioxopiperidin-3-yl)-3,5-difluorophenyl)azetidin-3-yl)carbamate]
50 to 80 | ≤ 100 | O=C1CCC(c2c(F)cc(N3CC(Nc4nnc(Cc5ccccc5)o4)C3)cc2F)C(=O)N1 (stereo not shown) [Compound 100, 3-(4-(3-((5-benzyl-1,3,4-oxadiazol-2-yl)amino)azetidin-1-yl)-2,6-difluorophenyl)piperidine-2,6-dione]
> 80 | ≤ 100 | O=C1CCC(c2c(F)cc(N3CC(Nc4nnc(C5CC6(CCC6)C5)o4)C3)cc2F)C(=O)N1 (stereo not shown) [Compound 107, 3-(2,6-difluoro-4-(3-((5-(spiro[3.3]heptan-2-yl)-1,3,4-oxadiazol-2-yl)amino)azetidin-1-yl)phenyl)piperidine-2,6-dione]
50 to 80 | ≤ 100 | O=C1CCC(c2c(F)cc(N3CC(NC(=O)OC4CN(C(=O)Cc5ccccc5)C4)C3)cc2F)C(=O)N1 (stereo not shown) [Compound 74, 1-(2-phenylacetyl)azetidin-3-yl (1-(4-(2,6-dioxopiperidin-3-yl)-3,5-difluorophenyl)azetidin-3-yl)carbamate]
> 80 | 100 to 1000 | O=C1CCC(c2c(F)cc(N3CC[C@H](NC(=O)OCC4CC5(CCC5)C4)C3)cc2F)C(=O)N1 (stereo partly drawn) [Compound 61, spiro[3.3]heptan-2-ylmethyl ((3S)-1-(4-(2,6-dioxopiperidin-3-yl)-3,5-difluorophenyl)pyrrolidin-3-yl)carbamate]
10 to 50 | ≤ 100 | Cc1cc(Cl)ccc1N(C)C(=O)N1CC(OC(=O)NC2CN(c3cc(F)c(C4CCC(=O)NC4=O)c(F)c3)C2)C1 (stereo not shown) [Compound 113, 1-((4-chloro-2-methylphenyl)(methyl)carbamoyl)azetidin-3-yl (1-(4-(2,6-dioxopiperidin-3-yl)-3,5-difluorophenyl)azetidin-3-yl)carbamate]
10 to 50 | ≤ 100 | CN(C)C(=O)N1CCC(OC(=O)NC2CN(c3cc(F)c(C4CCC(=O)NC4=O)c(F)c3)C2)CC1 (stereo not shown) [Compound 19, 1-(dimethylcarbamoyl)piperidin-4-yl (1-(4-(2,6-dioxopiperidin-3-yl)-3,5-difluorophenyl)azetidin-3-yl)carbamate]
50 to 80 | ≤ 100 | COc1c(N2CC(C)(Nc3nnc(-c4ccc(OC(F)(F)F)cc4)o3)C2)ccc(C2CCC(=O)NC2=O)c1F (stereo not shown) [Compound 136, 3-(2-fluoro-3-methoxy-4-(3-methyl-3-((5-(4-(trifluoromethoxy)phenyl)-1,3,4-oxadiazol-2-yl)amino)azetidin-1-yl)phenyl)piperidine-2,6-dione]
50 to 80 | 100 to 1000 | COc1c(N2CC(C)(NC(=O)OCC3CC4(CCC4)C3)C2)ccc(C2CCC(=O)NC2=O)c1F (stereo not shown) [Compound 2, spiro[3.3]heptan-2-ylmethyl (1-(4-(2,6-dioxopiperidin-3-yl)-3-fluoro-2-methoxyphenyl)-3-methylazetidin-3-yl)carbamate]
> 80 | ≤ 100 | O=C1CCC(c2ccc(N3CC(NC(=O)OCC4CC5(CCC5)C4)C3)cc2Cl)C(=O)N1 (stereo not shown) [Compound 60, spiro[3.3]heptan-2-ylmethyl (1-(3-chloro-4-(2,6-dioxopiperidin-3-yl)phenyl)azetidin-3-yl)carbamate]
> 80 | 100 to 1000 | COc1c(N2CC(Nc3nnc(-c4ccc(OC(F)(F)F)cc4)o3)C2)ccc(C2CCC(=O)NC2=O)c1F (stereo not shown) [Compound 90, 3-(2-fluoro-3-methoxy-4-(3-((5-(4-(trifluoromethoxy)phenyl)-1,3,4-oxadiazol-2-yl)amino)azetidin-1-yl)phenyl)piperidine-2,6-dione]
